PubChem BioAssay AID1963832 (Molecular Pharmacology Branch, DTP, NCI, 2024)

Test system: 885724-159-R-J1-PDC complex spheroid viability
Experiment: Anticancer human tumor 885724-159-R-J1-PDC patient-derived pancreatic adenocarcinoma cell line growth inhibition [POLQ]
Settings: for IC50: curve of first compound; for viability, T/C: stronger effect = lower value; active = viability on the fitted dose curve at most 10% of control; inactive = the rest
Method in brief: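 Three-cell-type spheroids modelling solid tumor plus stroma served as the readout system; POL inhibitors were tested individually and in combination, concentration ranges set by clinical Cmax where known.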

[1] = second compound 0.0316 µM, first compound 0.0316 µM
[2] = second compound 0.0316 µM, first compound 0.1 µM
[3] = second compound 0.0316 µM, first compound 0.316 µM
[4] = second compound 0.0316 µM, first compound 1 µM
[5] = second compound 0.0316 µM, first compound 3.16 µM
[6] = second compound 0.0316 µM, first compound 10 µM
[7] = second compound 0.1 µM, first compound 0.0316 µM
[8] = second compound 0.1 µM, first compound 0.1 µM
[9] = second compound 0.1 µM, first compound 0.316 µM
[10] = second compound 0.1 µM, first compound 1 µM
[11] = second compound 0.1 µM, first compound 3.16 µM
[12] = second compound 0.1 µM, first compound 10 µM
[13] = second compound 0.316 µM, first compound 0.0316 µM
[14] = second compound 0.316 µM, first compound 0.1 µM
[15] = second compound 0.316 µM, first compound 0.316 µM
[16] = second compound 0.316 µM, first compound 1 µM
[17] = second compound 0.316 µM, first compound 3.16 µM
[18] = second compound 0.316 µM, first compound 10 µM
[19] = second compound 1 µM, first compound 0.0316 µM
[20] = second compound 1 µM, first compound 0.1 µM
[21] = second compound 1 µM, first compound 0.316 µM
[22] = second compound 1 µM, first compound 1 µM
[23] = second compound 1 µM, first compound 3.16 µM
[24] = second compound 1 µM, first compound 10 µM
[25] = second compound 3.16 µM, first compound 0.0316 µM
[26] = second compound 3.16 µM, first compound 0.1 µM
[27] = second compound 3.16 µM, first compound 0.316 µM
[28] = second compound 3.16 µM, first compound 1 µM
[29] = second compound 3.16 µM, first compound 3.16 µM
[30] = second compound 3.16 µM, first compound 10 µM
[31] = second compound 10 µM, first compound 0.0316 µM
[32] = second compound 10 µM, first compound 0.1 µM
[33] = second compound 10 µM, first compound 0.316 µM
[34] = second compound 10 µM, first compound 1 µM
[35] = second compound 10 µM, first compound 3.16 µM
[36] = second compound 10 µM, first compound 10 µM
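Also: spheroids exposed to compounds for 7 days.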

O=c1[nH]cc(F)c(=O)[nH]1 + COC1C(OC(N)=O)C(O)C(Oc2ccc3c(O)c(NC(=O)c4ccc(O)c(CC=C(C)C)c4)c(=O)oc3c2C)OC1(C)C
inactive: viability, T/C [1] 103% | viability, T/C [2] 104% | viability, T/C [3] 91.6% | viability, T/C [4] 95.6% | viability, T/C [5] 89.4% | viability, T/C [6] 80.5% | viability, T/C [7] 117% | viability, T/C [8] 96.3% | viability, T/C [9] 101% | viability, T/C [10] 97% | viability, T/C [11] 88.4% | viability, T/C [12] 67.5% | viability, T/C [13] 99% | viability, T/C [14] 91.9% | viability, T/C [15] 103% | viability, T/C [16] 93.8% | viability, T/C [17] 80.3% | viability, T/C [18] 73.6% | viability, T/C [19] 119% | viability, T/C [20] 108% | viability, T/C [21] 100% | viability, T/C [22] 92.7% | viability, T/C [23] 89.6% | viability, T/C [24] 71.8% | viability, T/C [25] 104% | viability, T/C [26] 94.1% | viability, T/C [27] 92.3% | viability, T/C [28] 98.8% | viability, T/C [29] 83.5% | viability, T/C [30] 73.8% | viability, T/C [31] 113% | viability, T/C [32] 86.8% | viability, T/C [33] 92.9% | viability, T/C [34] 96.4% | viability, T/C [35] 83.2% | viability, T/C [36] 70.8%
> 10 µM: IC50 (second compound 0.0316 µM) | IC50 (second compound 0.1 µM) | IC50 (second compound 0.316 µM) | IC50 (second compound 1 µM) | IC50 (second compound 3.16 µM) | IC50 (second compound 10 µM)

CNCc1ccc(-c2[nH]c3cc(F)cc4c3c2CCNC4=O)cc1 + Nc1ccc(C#CCN(C(=O)Cc2ncc(C(F)(F)F)cc2C(F)(F)F)c2ccc(F)cc2)nn1
> 10 µM: IC50 (second compound 0.0316 µM) | IC50 (second compound 0.1 µM) | IC50 (second compound 0.316 µM) | IC50 (second compound 1 µM) | IC50 (second compound 3.16 µM) | IC50 (second compound 10 µM)
inactive: viability, T/C [1] 89% | viability, T/C [2] 93% | viability, T/C [3] 87.5% | viability, T/C [4] 91% | viability, T/C [5] 92.3% | viability, T/C [6] 91.1% | viability, T/C [7] 101% | viability, T/C [8] 88.3% | viability, T/C [9] 92.5% | viability, T/C [10] 94.2% | viability, T/C [11] 89.9% | viability, T/C [12] 85.6% | viability, T/C [13] 95.5% | viability, T/C [14] 81.1% | viability, T/C [15] 85.9% | viability, T/C [16] 89.8% | viability, T/C [17] 96.5% | viability, T/C [18] 92.7% | viability, T/C [19] 88.7% | viability, T/C [20] 101% | viability, T/C [21] 89.7% | viability, T/C [22] 85.7% | viability, T/C [23] 88.7% | viability, T/C [24] 83.4% | viability, T/C [25] 100% | viability, T/C [26] 96.8% | viability, T/C [27] 96.6% | viability, T/C [28] 88.6% | viability, T/C [29] 98.3% | viability, T/C [30] 81.9% | viability, T/C [31] 92% | viability, T/C [32] 92.2% | viability, T/C [33] 98.8% | viability, T/C [34] 91.5% | viability, T/C [35] 92.2% | viability, T/C [36] 91.7%

COc1cccc2c1C(=O)c1c(O)c3c(c(O)c1C2=O)CC(O)(C(=O)CO)CC3OC1CC(N)C(O)C(C)O1 (stereo not drawn) + Nc1ccc(C#CCN(C(=O)Cc2ncc(C(F)(F)F)cc2C(F)(F)F)c2ccc(F)cc2)nn1
0.173 µM: IC50 (second compound 1 µM)
inactive: viability, T/C [1] 66.2% | viability, T/C [2] 61% | viability, T/C [3] 34% | viability, T/C [4] 13.8% | viability, T/C [7] 75.9% | viability, T/C [8] 64.5% | viability, T/C [9] 40.4% | viability, T/C [10] 12.2% | viability, T/C [13] 72.5% | viability, T/C [14] 55.7% | viability, T/C [15] 37.7% | viability, T/C [16] 14.6% | viability, T/C [19] 76.7% | viability, T/C [20] 60.8% | viability, T/C [21] 38.1% | viability, T/C [22] 10.1% | viability, T/C [25] 74.9% | viability, T/C [26] 60.6% | viability, T/C [27] 35.2% | viability, T/C [28] 12.9% | viability, T/C [31] 70.8% | viability, T/C [32] 61.1% | viability, T/C [33] 36.1% | viability, T/C [34] 11.3%
0.198 µM: IC50 (second compound 0.1 µM)
0.15 µM: IC50 (second compound 0.316 µM)
active: viability, T/C [5] 5.73% | viability, T/C [6] 6.16% | viability, T/C [11] 6.2% | viability, T/C [12] 6.34% | viability, T/C [17] 5.39% | viability, T/C [18] 7.18% | viability, T/C [23] 6.54% | viability, T/C [24] 7.34% | viability, T/C [29] 5.75% | viability, T/C [30] 7.58% | viability, T/C [35] 5.42% | viability, T/C [36] 5.67%
0.163 µM: IC50 (second compound 3.16 µM)
0.158 µM: IC50 (second compound 0.0316 µM)
0.168 µM: IC50 (second compound 10 µM)

O=C(Nc1ccc(O)c(NS(=O)(=O)c2ccc(F)cc2)c1)c1ccc(-c2ccccc2)cc1 + Nc1ccc(C#CCN(C(=O)Cc2ncc(C(F)(F)F)cc2C(F)(F)F)c2ccc(F)cc2)nn1
inactive: viability, T/C [1] 97.8% | viability, T/C [2] 94.2% | viability, T/C [3] 97.4% | viability, T/C [4] 97.6% | viability, T/C [5] 110% | viability, T/C [6] 93.3% | viability, T/C [7] 102% | viability, T/C [8] 95.3% | viability, T/C [9] 112% | viability, T/C [10] 101% | viability, T/C [11] 111% | viability, T/C [12] 96.4% | viability, T/C [13] 103% | viability, T/C [14] 93.2% | viability, T/C [15] 94.7% | viability, T/C [16] 103% | viability, T/C [17] 110% | viability, T/C [18] 93.4% | viability, T/C [19] 110% | viability, T/C [20] 99.4% | viability, T/C [21] 78.1% | viability, T/C [22] 98.3% | viability, T/C [23] 101% | viability, T/C [24] 92.1% | viability, T/C [25] 97.1% | viability, T/C [26] 91% | viability, T/C [27] 87.3% | viability, T/C [28] 104% | viability, T/C [29] 108% | viability, T/C [30] 95.7% | viability, T/C [31] 91.2% | viability, T/C [32] 98.4% | viability, T/C [33] 103% | viability, T/C [34] 98.6% | viability, T/C [35] 108% | viability, T/C [36] 86.4%
> 10 µM: IC50 (second compound 0.0316 µM) | IC50 (second compound 0.1 µM) | IC50 (second compound 0.316 µM) | IC50 (second compound 1 µM) | IC50 (second compound 3.16 µM) | IC50 (second compound 10 µM)
